Measurements as given in ChEMBL document CHEMBL1148183, “Anti-inflammatory activity of two flavonoids from Tanacetum microphyllum” (1993).
Activity calls are given as the source filed them. The rule behind the calls is not given here.

Legend:
Mus musculus [1] = assay: Antiinflammatory activity against carrageenan-induced paw edema in Swiss mouse at 10 mg/kg, po administered 1 hr before carrageenan challenge measured after 3 hrs; format: functional
Mus musculus [2] = assay: Antiinflammatory activity against carrageenan-induced paw edema in Swiss mouse at 10 mg/kg, po administered 1 hr before carrageenan challenge measured after 5 hrs; format: functional
Mus musculus [3] = assay: Antiinflammatory activity against carrageenan-induced paw edema in po dosed Swiss mouse administered 1 hr before carrageenan challenge measured after 7 hrs; format: functional, organism-based
Mus musculus [4] = assay: Antiinflammatory activity against carrageenan-induced paw edema in Swiss mouse at 25 mg/kg, po administered 1 hr before carrageenan challenge measured after 5 hrs; format: functional
Mus musculus [5] = assay: Antiinflammatory activity against carrageenan-induced paw edema in Swiss mouse at 25 mg/kg, po administered 1 hr before carrageenan challenge measured after 3 hrs; format: functional
Mus musculus [6] = assay: Antiinflammatory activity against carrageenan-induced paw edema in Swiss mouse at 80 mg/kg, po administered 1 hr before carrageenan challenge measured after 3 hrs; format: functional
Mus musculus [7] = assay: Antiinflammatory activity against carrageenan-induced paw edema in Swiss mouse at 80 mg/kg, po administered 1 hr before carrageenan challenge measured after 5 hrs; format: functional

**Q.** Which results are given for `COC(=O)c1cc(O)c2c(=O)c(O)c(-c3ccc(OC)c(O)c3)oc2c1`?
**A.** inhibition in vivo at 10 mg/kg (Mus musculus [1]): 64.9%; inhibition in vivo at 10 mg/kg (Mus musculus [2]): 52.7%; Activity (Mus musculus [3]): Active

**Q.** What does the source list for `COc1ccc(-c2oc3cc(O)c(OC)c(O)c3c(=O)c2OC)cc1O` [CENTAUREIDIN]?
**A.** inhibition in vivo at 25 mg/kg (Mus musculus [4]): 55.5%; inhibition in vivo at 25 mg/kg (Mus musculus [5]): 67.6%

**Q.** For `CCCCC1C(=O)N(c2ccccc2)N(c2ccccc2)C1=O` [PHENYLBUTAZONE], which inhibition in vivo at 80 mg/kg (Mus musculus [6]) is on record?
**A.** The inhibition in vivo at 80 mg/kg was 51.4%.

**Q.** And the inhibition in vivo at 80 mg/kg (Mus musculus [7])?
**A.** Its inhibition in vivo at 80 mg/kg is 47.2%.
